# According to patent US9931316B2 (priority 2015, dated 2018):
# Like-named read-outs stand apart in the source and are kept apart here.
# Tests used:
# Polio = type: cell-based, poliovirus; details: Polio primary, SI50 = CC50/EC50
# [1] = system: Mycobacterium tuberculosis; details: Hwang et al., J. Nat. Prod. 76: 1916-1922 (2013); cited from earlier work
# Ebola = type: cell-based, Ebola virus; details: SI50 = CC50/EC50
# [2] = system: Flu A (H3N2) Wisconsin/67/2005; assay: microbe, parasite or virus in culture; type: cell-based, Influenza A; details: for Cntrl SI: Ribavirin control, Flu A (H3N2)
# [3] = system: Flu A (H5N1) Vietnam/1203/2004H; assay: microbe, parasite or virus in culture; type: cell-based, Influenza A
# Flu B Shanghai/361/02 = assay: Influenza B antiviral assay in MDCK cells (BioShield, NIH contract labs); type: cell-based; details: for EC50: Influenza B virus, read-out: Cntrl EC50; for EC50 / Cntrl SI: Ribavirin control, Flu B
# Source text: Following the Project BioShield Act of 2004, Fungi Perfecti, LLC submitted over 200 hot water fruitbody and aqueous ethanolic extracts of the in vitro grown mycelia of mushroom species and strains within to the BioShield BioDefense Program administered by the U.S. Army Medical Research Institute of Infectious Diseases ([…]) and the National Institutes of Health (NIH). Submitted samples were screened for antiviral activity coordinated through the Southern Research Institute (SRI). From the more than 200 samples the inventor provided to BioShield, 2,392 antiviral assays were performed on behalf of the inventor; 1,042 of which were influenza tests.
# The protocols for determining antiviral activity are fully described by the National Institutes of Allergy and Infectious Diseases (NIAID) by Greenstone et al., NIAID resources for developing new therapies for severe viral infections, Antiviral Res., Volume 78, Issue 1, April 2008, Pages 51-59, hereby incorporated by reference in its entirety. The influenza bioassays were conducted according to Sidwell, R W and Smee, D F, In vitro and in vivo assay systems for study of influenza virus inhibitors, Antiviral Res., October 2000, 48(1):1-16., hereby incorporated by reference in its entirety.
# in vitro = details: dog
# Human papillomavirus 11 = type: cell-based, human papillomavirus (HPV)
# Norovirus = type: cell-based, norovirus (Norwalk); parameters: unit not given beside the values
# [4] = oral ingestion; cited from earlier work
# HSV-1 = assay: microbe, parasite or virus in culture; type: cell-based, Herpes Simplex; details: Human alphaherpesvirus 1, HFF, read-out: Cntrl EC50
# [5] = system: laccase activity of Trametes sp. 1-62; details: Terron et al. 2004; cited from earlier work
# [6] = within the human body; cited from earlier work
smiles,measurement,setting,value
O=c1cc(-c2ccccc2)oc2cc(O)cc(O)c12 [Chrysin],SI50,Polio,Polio primary: SI50 > 15 (Control pirodavir SI50 > 22)
same,SI50,Polio; listed as chrysin,> 15
CCOC(=O)c1c(-c2ccccc2)c2ccc(Cl)cc2oc1=O [Ethyl 7-chloro-2-oxo-4-phenyl-2H-chromen-3-carboxylate],activity against Mycobacterium tuberculosis,[1],active
CC(=O)/C=C(O)\C=C\c1ccc(O)c(O)c1 [Hispolon],activity against Mycobacterium tuberculosis,[1],active
same,SI50,Ebola,> 5.3
NC(=O)c1ncn([C@@H]2O[C@H](CO)[C@@H](O)[C@H]2O)n1 [Ribavirin],EC50,"[2]; Influenza A virus, H3N2, MDCK, read-out: Cntrl EC50",2 µg/mL
same,Cntrl SI,[2]; Neutral Red,>160
same,Cntrl SI,[2]; Visual,>170
same,EC50,"[3]; Influenza A virus, H5N1, MDCK, read-out: Cntrl EC50, Ribavirin control, Neutral Red",12 µg/mL
same,Cntrl SI,"[3]; Ribavirin control, Neutral Red",>27
same,EC50,"Flu B Shanghai/361/02; MDCK, Neutral Red",7.1 µg/mL
same,EC50,"Flu B Shanghai/361/02; MDCK, Visual-CONF",1.7 µg/mL
same,EC50,"Flu B Shanghai/361/02; MDCK, Visual",1.7 µg/mL
same,EC90,"Flu B Shanghai/361/02; MDCK, read-out: Cntrl EC90",37.7 µg/mL
same,Cntrl SI,Flu B Shanghai/361/02; Neutral Red,>45
same,Cntrl SI,Flu B Shanghai/361/02; Visual,>190
same,Cntrl SI,Flu B Shanghai/361/02; Visual-CONF,>190
same,IC50,in vitro,> 320 µg/mL
C[C@@H]1O[C@@H](OC[C@H]2O[C@@H](Oc3c(-c4ccc(O)c(O)c4)oc4cc(O)cc(O)c4c3=O)[C@H](O)[C@@H](O)[C@@H]2O)[C@H](O)[C@H](O)[C@H]1O.O [Rutin hydrate],SI90,Human papillomavirus 11,"Human papillomavirus 11 primary: SI50 > 109 (Control cidofovir SI50 = 12), SI90 = 5 (Control cidofovir SI90 = 1)"
COc1cc(C(=O)O)ccc1O [Vanillic acid],SI50,Norovirus,1
same,SI90,Norovirus,1
same,time remaining in the blood stream post-digestion,[4],more than 11 hours
Nc1nc2c(ncn2COCCO)c(=O)[nH]1 [acyclovir],EC50,HSV-1,0.3 µg/mL
NC(=O)c1nc(F)c[nH]c1=O [favipiravir],SI50,Ebola,> 10
COc1ccccc1O [guaiacol],increase in laccase activity,[5],73 fold
O=C(O)/C=C/c1ccc(O)cc1 [p-coumaric acid],increase in laccase activity,[5],273 fold
COc1cc(C=O)ccc1O [vanillin],share of vanillin metabolized into vanillic acid,[6],up to 95%
